Legend:
pH of saturated solution = assay type: physicochemical; conditions: saturated solution in deionized water, room temperature
Description: A saturated solution of each of the salts was prepared in 5 mL of deionized water at room temperature prior to analysis.

[1] = Aqueous solubility assessment of salt screen solids (visual); conditions: Ca. 5 mg in up to 4000 μL water (1.25 mg/ml), shaken overnight at 50° C.
Description: Aqueous solubility assessment was performed using Ca. […] These samples were added to aliquots of deionized water up to a maximum of 4000 μL with the samples being shaken between additions to encourage dissolution prior to a visual inspection.

pH1 stability = assay type: physicochemical; conditions: pH 1 buffer, 4 h at 37° C.
Description: Ca. 25 mg of each of the salts were weighed into a 2 mL HPLC vial prior to the addition of 1 mL of pH 1 buffer. The samples were then shaken for 4 h at 37° C. before being filtered into SPE cartridges and dried overnight.

[2] = Aqueous solubility, 24 h shake, gravimetric; assay type: physicochemical; conditions: thermodynamic from solid, deionized water
Description: Ca. 50 mg of each of the salts were weighed into a 2 mL HPLC vial prior to the addition of 1 mL of deionized water. […] The experiment was also repeated at 50° C.

[3] = Stability at 40° C./75% RH; assay type: physicochemical
FaSSIF/FeSSIF solubility = assay type: physicochemical; conditions: thermodynamic from solid, shaken 24 h at 37° C.
Description: Ca. 25 mg of each of the salts were weighed into a 2 mL HPLC vial prior to the addition of 1 mL of Fasting State Simulated Intenstinal Fluid (FaSSIS) solution. […] The experiment was also repeated using Fed State Simulated Intestinal Fluid (FeSSIF) solution.

[4] = Dynamic vapor sorption (DVS); assay type: physicochemical
Description: SMS DVS Intrinsic dynamic vapour sorption instrument using DVS-Intrinsic control software v1.0.6.0. Analysis of the data was performed using the DVS analysis suite v7.0.13.1 macro program embedded in Microsoft Excel. Analysis was performed as a wt % change from 0-90% RH with isothermal plots also being examined.
Ca. 10-15 mg of sample was weighed into a stainless steel DVS basket before submitting for analysis. The samples were analysed over the range of 0-90% RH with a maximum time of 6 hours per humidity stage. Each sample was exposed to a double cycle. XRPD analysis of all samples was performed post-DVS.

O=C(CSc1ccc(Br)cc1)Nc1cn(CCc2ccccc2)nc1C(=O)[O-].[Na+] [sodium salt, 4-(2-((4-bromophenyl)thio)acetamido)-1-phenethyl-1H-pyrazole-3-carboxylic Acid Sodium Salt]
pH of rm temp sat'd sol'n (pH of saturated solution): 10.31 | Solubility assessment (dissolution in deionized water), salt from DIPE ([1]; salt prepared from DIPE): Complete | Solubility assessment (dissolution in deionized water), salt From Ethanol ([1]; salt prepared from ethanol): Complete | Observations post stability (pH 1 for 4 h) (pH1 stability): No visual change | XRPD post stability (pH 1 for 4 h) (pH1 stability): Partially crystalline: change in crystalline | Chemical purity post stability (pH 1 for 4 h) (pH1 stability; HPLC): >99.9% (by peak area) | 1H NMR post stability (pH 1 for 4 h) (pH1 stability; cell continues: salt form is no longer present): No chemical shifts, indicating that salt form | solubility at 24 h ([2]; shaken 24 h at 25° C., read-out: Aqueous solubility @ 25° C.): 2300 µg/mL | solubility at 24 h ([2]; shaken 24 h at 50° C.): 2400 µg/mL | Observation post stability (40° C./75% RH) [3]: No visible change | XRPD post stability (40° C./75% RH) [3]: Crystalline - no change in form | Chemical purity post stability (40° C./75% RH) ([3]; HPLC): >99.9% (by peak area) | solubility at 24 h (FaSSIF/FeSSIF solubility; FaSSIF, read-out: FaSSIF solubility @ 37° C.): 4000 µg/mL | solubility at 24 h (FaSSIF/FeSSIF solubility; FeSSIF, read-out: FeSSIF solubility @ 37° C.): 3800 µg/mL | DVS mass increase between 0-90% RH, first cycle ([4]; 0-90% RH, first cycle): Ca. 11.7% mass increase between 0-90% RH on | XRPD post DVS ([4]; after double cycle 0-90% RH): Crystalline - no change in form
